The target of test [1] is T1, Gal4-RORγ-LBD (Homo sapiens, UniProt P51449).
T1 construct: expressed in transfected cells
T1 sequence (P51449 269-508 limits assumed): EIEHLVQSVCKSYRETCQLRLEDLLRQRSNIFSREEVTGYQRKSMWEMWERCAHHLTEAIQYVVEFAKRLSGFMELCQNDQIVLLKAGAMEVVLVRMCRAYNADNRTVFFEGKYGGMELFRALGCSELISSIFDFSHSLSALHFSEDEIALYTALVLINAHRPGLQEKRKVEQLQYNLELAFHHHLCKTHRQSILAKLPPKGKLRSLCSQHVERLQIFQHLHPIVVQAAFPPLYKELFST
The experiment in a line: Gal4-RORγ Luciferase Reporter Assay in HEK-293T Cells. The test is classed as cell-based. Conditions: HEK-293 cells, luciferase reporter, with ursolic acid. Summed up: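 Max Response was taken as the upper plateau of a 4-parameter logistic fit of luciferase signal, normalized to 100 for wells without ursolic acid or compound. Transiently Gal4-RORγ-LBD/Gal4-luc transfected HEK-293 cells carrying […] ursolic acid were incubated with test compounds (0.2% DMSO) overnight at 37 °C and read with One-Glo.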
(A reporter such as luciferase makes a cellular process visible.)

In test [2] the target is T2, RORγ-LBD (Homo sapiens, UniProt P51449).
T2 construct: made in house; host or cells: SF9 cells (baculovirus); used as diluted lysate
T2 sequence (P51449 269-508 limits assumed): T1 sequence (P51449 269-508 limits assumed)
The experiment in a line: RORγ-Ligand Binding Domain (LBD) TR-FRET Assay. In kind it is biochemical. Conditions: RORγ-LBD TR-FRET. An outline of the steps:
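TR-FRET read-out using a biotin-tagged SRC1 coactivator LXXLL peptide (200 nM final), with the antagonist ursolic acid present at 2 μM final. Receptor is His-tagged LBD expressed in SF9 cells, ~3 nM final in pH 7.0 Tris/KCl/EDTA/DTT/BSA buffer; compounds in 1% DMSO final.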
(Time-resolved FRET reads energy transfer from a long-lived donor to a nearby acceptor.)

Bounds are passed on as bounds.

What is called EC50 is the midpoint of the concentration-response curve. Low readings indicate higher potency in that assay, high ones lower potency in that assay.

With `CCOc1ncc(Cl)cc1S(=O)(=O)N1C[C@H](CCC(=O)O)Oc2ccc(/C=C(\C)c3c(F)cccc3Cl)cc21` [Example 68, (S,E)-3-(4-((5-Chloro-2-ethoxypyridin-3-yl)sulfonyl)-6-(2-(2-chloro-6-fluorophenyl)prop-1-en-1-yl)-3,4-dihydro-2H-benzo[b][1,4]oxazin-2-yl)propanoic acid], the EC50 is 500 to 5000 nM in test [1] and < 500 nM in test [2].
On to `COC(=O)CC[C@H]1CN(S(=O)(=O)c2cc(Cl)cnc2OCCO)c2cc(/C=C(\C)c3c(F)cccc3Cl)ccc2O1` [Example 69, Methyl (S,E)-3-(4-((5-chloro-2-(2-hydroxyethoxy)pyridin-3-yl)sulfonyl)-6-(2-(2-chloro-6-fluorophenyl)prop-1-en-1-yl)-3,4-dihydro-2H-benzo[b][1,4]oxazin-2-yl)propanoate], for which the EC50 in test [1] was > 10000 nM; in test [2] it was < 500 nM.
Take `C/C(=C\c1ccc2c(c1)N(S(=O)(=O)c1cc(Cl)cnc1OCCO)C[C@H](CCC(=O)O)O2)c1c(F)cccc1Cl` [Example 70, (S,E)-3-(4-((5-Chloro-2-(2-hydroxyethoxy)pyridin-3-yl)sulfonyl)-6-(2-(2-chloro-6-fluorophenyl)prop-1-en-1-yl)-3,4-dihydro-2H-benzo[b][1,4]oxazin-2-yl)propanoic acid]: the EC50 in test [1] and in test [2] was < 500 nM in each case.
Consider `C/C(=C\c1ccc2c(c1)N(S(=O)(=O)c1cc(C(F)(F)F)cnc1OCCO)C[C@H](CCC(=O)O)O2)c1c(F)cccc1Cl` [Example 71, (S,E)-3-(6-(2-(2-Chloro-6-fluorophenyl)prop-1-en-1-yl)-4-((2-(2-hydroxyethoxy)-5-(trifluoromethyl)pyridin-3-yl)sulfonyl)-3,4-dihydro-2H-benzo[b][1,4]oxazin-2-yl)propanoic acid], for which the half-maximal effective concentration (EC50) in test [1] and in test [2] was < 500 nM throughout.
Turning to `CCOc1sc(CC)nc1S(=O)(=O)N1C[C@H](CCC(=O)OC)Oc2ccc(/C=C(\C)c3c(F)cccc3Cl)cc21` [Example 72, Methyl (S,E)-3-(6-(2-(2-chloro-6-fluorophenyl)prop-1-en-1-yl)-4-((5-ethoxy-2-ethylthiazol-4-yl)sulfonyl)-3,4-dihydro-2H-benzo[b][1,4]oxazin-2-yl)propanoate], the EC50 in test [1] and in test [2] was < 500 nM throughout.
Take `CCOc1sc(CC)nc1S(=O)(=O)N1C[C@H](CCC(=O)O)Oc2ccc(/C=C(\C)c3c(F)cccc3Cl)cc21` [Example 73, (S,E)-3-(6-(2-(2-Chloro-6-fluorophenyl)prop-1-en-1-yl)-4-((5-ethoxy-2-ethylthiazol-4-yl)sulfonyl)-3,4-dihydro-2H-benzo[b][1,4]oxazin-2-yl)propanoic acid]: the EC50 in test [1] and in test [2] was < 500 nM each time.
Consider `COC(=O)CC[C@H]1CN(S(=O)(=O)c2cncc(C(F)(F)F)c2)c2cc(/C=C(\C)c3c(F)cccc3Cl)ccc2O1` [Example 74, Methyl (S,E)-3-(6-(2-(2-chloro-6-fluorophenyl)prop-1-en-1-yl)-4-((5-(trifluoromethyl)pyridin-3-yl)sulfonyl)-3,4-dihydro-2H-benzo[b][1,4]oxazin-2-yl)propanoate], for which the figures for the EC50 in test [1] and in test [2] were 500 to 5000 nM and < 500 nM, respectively.
The matching figures for `C/C(=C\c1ccc2c(c1)N(S(=O)(=O)c1cncc(C(F)(F)F)c1)C[C@H](CCC(=O)O)O2)c1c(F)cccc1Cl` [Example 75, (S,E)-3-(6-(2-(2-Chloro-6-fluorophenyl)prop-1-en-1-yl)-4-((5-(trifluoromethyl)pyridin-3-yl)sulfonyl)-3,4-dihydro-2H-benzo[b][1,4]oxazin-2-yl)propanoic acid]: 500 to 5000 nM and < 500 nM.
As for `CCOc1ncc(C(F)(F)F)cc1S(=O)(=O)N1C[C@H](CCC(=O)OC)Oc2ccc(/C=C(\C)c3c(Cl)cccc3C(F)(F)F)cc21` [Example 76, Methyl (S,E)-3-(6-(2-(2-chloro-6-(trifluoromethyl)phenyl)prop-1-en-1-yl)-4-((2-ethoxy-5-(trifluoromethyl)pyridin-3-yl)sulfonyl)-3,4-dihydro-2H-benzo[b][1,4]oxazin-2-yl)propanoate], the EC50 was 500 to 5000 nM in test [1] and < 500 nM in test [2].
The like results for `CCOc1ncc(C(F)(F)F)cc1S(=O)(=O)N1C[C@H](CCC(=O)O)Oc2ccc(/C=C(\C)c3c(Cl)cccc3C(F)(F)F)cc21` [Example 77, (S,E)-3-(6-(2-(2-Chloro-6-(trifluoromethyl)phenyl)prop-1-en-1-yl)-4-((2-ethoxy-5-(trifluoromethyl)pyridin-3-yl)sulfonyl)-3,4-dihydro-2H-benzo[b][1,4]oxazin-2-yl)propanoic acid] were, in that order, 500 to 5000 nM and < 500 nM.
For the compound `COC(=O)CC[C@H]1CN(S(=O)(=O)c2cc(C(F)(F)F)cnc2OC[C@@H](C)O)c2cc(/C=C/c3c(F)cccc3Cl)ccc2O1` [Example 78, Methyl 3-((S)-6-((E)-2-chloro-6-fluorostyryl)-4-((2-((R)-2-hydroxypropoxy)-5-(trifluoromethyl)pyridin-3-yl)sulfonyl)-3,4-dihydro-2H-benzo[b][1,4]oxazin-2-yl)propanoate], the EC50 in test [1] and in test [2] was 500 to 5000 nM throughout.
For the compound `C[C@@H](O)COc1ncc(C(F)(F)F)cc1S(=O)(=O)N1C[C@H](CCC(=O)O)Oc2ccc(/C=C/c3c(F)cccc3Cl)cc21` [Example 79, 3-((S)-6-((E)-2-Chloro-6-fluorostyryl)-4-((2-((R)-2-hydroxypropoxy)-5-(trifluoromethyl)pyridin-3-yl)sulfonyl)-3,4-dihydro-2H-benzo[b][1,4]oxazin-2-yl)propanoic acid], the EC50 in test [1] was 500 to 5000 nM; in test [2], < 500 nM.
With `CCn1cc(S(=O)(=O)N2C[C@H](CCC(=O)O)Oc3ccc(/C=C(\C)c4c(F)cccc4Cl)cc32)c(OCCO)n1` [Example 80, (S,E)-3-(6-(2-(2-Chloro-6-fluorophenyl)prop-1-en-1-yl)-4-((1-ethyl-3-(2-hydroxyethoxy)-1H-pyrazol-4-yl)sulfonyl)-3,4-dihydro-2H-benzo[b][1,4]oxazin-2-yl)propanoic acid], the figures for the EC50 in test [1] and in test [2] were 500 to 5000 nM and < 500 nM, respectively.
The like results for `COC(=O)CC[C@H]1CN(S(=O)(=O)c2cccc(C(F)F)c2)c2cc(/C=C/c3c(Cl)cccc3C(F)(F)F)ccc2O1` [Example 81, Methyl (S,E)-3-(6-(2-chloro-6-(trifluoromethyl)styryl)-4-((3-(difluoromethyl)phenyl)sulfonyl)-3,4-dihydro-2H-benzo[b][1,4]oxazin-2-yl)propanoate] were, in that order, < 500 nM and < 500 nM.
As to `O=C(O)CC[C@H]1CN(S(=O)(=O)c2cccc(C(F)F)c2)c2cc(/C=C/c3c(Cl)cccc3C(F)(F)F)ccc2O1` [Example 82, (S,E)-3-(6-(2-Chloro-6-(trifluoromethyl)styryl)-4-((3-(difluoromethyl)phenyl)sulfonyl)-3,4-dihydro-2H-benzo[b][1,4]oxazin-2-yl)propanoic acid], the EC50 in test [1] and in test [2] was < 500 nM each time.
Consider `COC(=O)CC[C@H]1CN(S(=O)(=O)c2cccc(C(C)(F)F)c2)c2cc(/C=C/c3c(Cl)cccc3C(F)(F)F)ccc2O1` [Example 83, Methyl (S,E)-3-(6-(2-chloro-6-(trifluoromethyl)styryl)-4-((3-(1,1-difluoroethyl)phenyl)sulfonyl)-3,4-dihydro-2H-benzo[b][1,4]oxazin-2-yl)propanoate], for which the EC50 was 500 to 5000 nM in test [1] and < 500 nM in test [2].
The matching figures for `CC(F)(F)c1cccc(S(=O)(=O)N2C[C@H](CCC(=O)O)Oc3ccc(/C=C/c4c(Cl)cccc4C(F)(F)F)cc32)c1` [Example 84, (S,E)-3-(6-(2-Chloro-6-(trifluoromethyl)styryl)-4-((3-(1,1-difluoroethyl)phenyl)sulfonyl)-3,4-dihydro-2H-benzo[b][1,4]oxazin-2-yl)propanoic acid]: < 500 nM and < 500 nM.
The matching figures for `C/C(=C\c1ccc2c(c1)N(S(=O)(=O)c1cn(C3CC3)nc1OCCO)C[C@H](CCC(=O)O)O2)c1c(F)cccc1Cl` [Example 85, (S,E)-3-(6-(2-(2-Chloro-6-fluorophenyl)prop-1-en-1-yl)-4-((1-cyclopropyl-3-(2-hydroxyethoxy)-1H-pyrazol-4-yl)sulfonyl)-3,4-dihydro-2H-benzo[b][1,4]oxazin-2-yl)propanoic acid]: < 500 nM and < 500 nM.
The matching figures for `C/C(=C\c1ccc2c(c1)N(S(=O)(=O)c1ccc(F)c(C(F)(F)F)c1)C[C@H](CCC(=O)O)O2)c1c(F)cccc1Cl` [Example 86A, (S,E)-3-(6-(2-(2-chloro-6-fluorophenyl)prop-1-en-1-yl)-4-((4-fluoro-3-(trifluoromethyl)-phenyl)sulfonyl)-3,4-dihydro-2H-benzo[b][1,4]oxazin-2-yl)-propanoic acid]: 500 to 5000 nM and < 500 nM.
Turning to `COC(=O)CC[C@H]1CN(S(=O)(=O)c2cccc(C(F)(F)F)c2)c2cc(/C=C(\C)c3ccccc3)ccc2O1` [Example 86AB, (S,E)-methyl 3-(6-(2-phenylprop-1-en-1-yl)-4-((3-(trifluoromethyl)-phenyl)sulfonyl)-3,4-dihydro-2H-benzo[b][1,4]oxazin-2-yl)propanoate], the EC50 in test [1] was 500 to 5000 nM; in test [2], < 500 nM.

The record behind these values is patent publication US9896441B2 (Lycera Corporation, priority 2014, dated 2018).
